Measured values from patent publication US11008357B2, “Method for preparing canagliflozin amorphous form” (Zhejiang Huahai Pharmaceutical Co., Ltd., priority 2017, dated 2021).
Like-named read-outs stand apart in the source and are kept apart here.

Tests used:
[1] = stability test conditions not documented in the literature; cited from earlier work
[2] = Stability test of canagliflozin amorphous forms (moisture absorption, crystal transition); format: physicochemical; conditions: Temperature 25 ± 5° C., Humidity 50-60%, 3 months
From the text: In order to illustrate that the canagliflozin amorphous form of the present invention is different from the amorphous form prepared by the general amorphous preparation method, the inventors select and compare the amorphous forms obtained by the above-mentioned practical methods, including rapid evaporation of solvent for curing, mixed solvent method and other related methods.

SMILES	Crystal transition or not [1]	Obvious moisture absorption or not [1]	Crystal transition or not [2]	Obvious moisture absorption or not [2]
Cc1ccc([C@@H]2O[C@H](CO)[C@@H](O)[C@H](O)[C@H]2O)cc1Cc1ccc(-c2ccc(F)cc2)s1 [CN103889429 Example 2]	No	No obvious		
Cc1ccc([C@@H]2O[C@H](CO)[C@@H](O)[C@H](O)[C@H]2O)cc1Cc1ccc(-c2ccc(F)cc2)s1 [CN104119323 Example 1, reference compound]			No	No obvious
